Test systems include HCC 2998; EKVX; U-251; OVCAR-4; SF-295; M14; MDA-MB-231; ACHN; KM12; UACC-257; HCT-15; SNB-19; HL-60; RPMI-8226; NCI-H23; T47D; NCI-H460; OVCAR-5; SR.
What all share (assay): NCI anticancer screen, dose series, 48 h

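Cultured in 96-well plates, cells were exposed to test compound for 48 hours across five concentrations. GI50 = concentration required for 50% inhibition of growth.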 The source made the active and inactive calls. Cut-off read from the data, not from the text of the source: active = GI50 up to about 1.1 µM and inactive = higher.

Regarding `COc1ccc(Nc2c[nH]c(=O)[nH]c2=O)cc1`, the GI50 in the experiment with HCC 2998, with EKVX, in the experiment on U-251, with OVCAR-4, in the experiment with SF-295 and in the experiment on M14 was > 100 µM (inactive) throughout. Moreover, the GI50 is > 100 µM (inactive) in the experiment with MDA-MB-231; > 100 µM (inactive) in the experiment with ACHN; > 100 µM (inactive) in the experiment with KM12; > 100 µM (inactive) with UACC-257; over 100 µM in the experiment with HCT-15; > 100 µM (inactive) with SNB-19. The GI50 with HL-60, with RPMI-8226, with NCI-H23 and in the experiment on T47D was > 100 µM (inactive) each time.

Regarding `COC(=O)/C=c1/c2ccccc2n2c1c1ccccc1[n+]2C`, the GI50 was 2.35 µM (inactive) with HCC 2998; 3.08 µM (inactive) in the experiment on EKVX; 2.61 µM (inactive) in the experiment on U-251; 4.11 µM (inactive) in the experiment on OVCAR-4; 2.69 µM (inactive) with SF-295; 3.99 µM (inactive) in the experiment on M14. The GI50 in the experiment on MDA-MB-231 is 4.59 µM (inactive); in the experiment on NCI-H460, 3.37 µM (inactive); in the experiment on ACHN, 3.92 µM (inactive); with KM12, 2.71 µM (inactive); with UACC-257 it was 2.58 µM (inactive); with OVCAR-5 it was 4.6 µM (inactive). The GI50 in the experiment with HCT-15 is 13.4 µM; in the experiment on SNB-19, 4.88 µM (inactive); in the experiment on HL-60, 2.84 µM (inactive); with RPMI-8226 it was 2.77 µM (inactive); in the experiment with NCI-H23, 3.29 µM (inactive); with T47D, 3.86 µM (inactive).

Turning to `O=C1C=Cc2c(Cl)sc(Cl)c21`, the GI50 in the experiment with HCC 2998 was 5.38 µM (inactive); with EKVX, 3.27 µM (inactive); in the experiment with U-251 it was 2.99 µM (inactive); in the experiment with OVCAR-4 it was 6.01 µM (inactive); in the experiment with SF-295, 8.59 µM (inactive); in the experiment with SR, 0.347 µM (active). In addition, the GI50 in the experiment on M14 was 1.87 µM (inactive); with MDA-MB-231 it was 2.86 µM (inactive); in the experiment with NCI-H460, 9.31 µM (inactive); in the experiment on ACHN it was 1.71 µM (inactive); in the experiment on KM12, 0.883 µM (active); in the experiment with UACC-257, 2.03 µM (inactive). In addition, the GI50 in the experiment on OVCAR-5 was 4.3 µM (inactive); with HCT-15, 1.51 µM; with SNB-19, 4.63 µM (inactive); in the experiment on RPMI-8226 it was 0.675 µM (active); in the experiment on NCI-H23, 2.22 µM (inactive); with T47D it was 1.81 µM (inactive).

For the compound `CC1(C)CC(=O)c2c(nc(SSc3nc4c(c(-c5ccccc5)c3C#N)C(=O)CC(C)(C)C4)c(C#N)c2-c2ccccc2)C1`, the GI50 in the experiment with HCC 2998, in the experiment with EKVX, in the experiment with U-251, in the experiment with OVCAR-4, with SF-295 and in the experiment on M14 was > 10 µM (inactive) in each case. Besides, the GI50 was > 10 µM (inactive) with NCI-H460; > 10 µM (inactive) in the experiment with ACHN; > 10 µM (inactive) in the experiment with KM12; > 10 µM (inactive) in the experiment on UACC-257; > 10 µM (inactive) in the experiment on OVCAR-5; over 10 µM in the experiment with HCT-15. Besides, the GI50 in the experiment with SNB-19, in the experiment on HL-60, in the experiment on RPMI-8226, in the experiment with NCI-H23 and in the experiment with T47D was > 10 µM (inactive) in each case.

In the case of `Cc1cc2[nH]c3c(C#N)c(-c4ccccc4)c(CN4CCOCC4)c(=O)n3c2cc1C`, the GI50 in the experiment with HCC 2998, with EKVX, in the experiment on U-251, in the experiment with OVCAR-4, in the experiment with SF-295 and with M14 was > 100 µM (inactive) each time. Further, the GI50 in the experiment on MDA-MB-231, with NCI-H460, with ACHN, with KM12, in the experiment with UACC-257 and in the experiment on OVCAR-5 was > 100 µM (inactive) throughout. Moreover, the GI50 in the experiment on HCT-15 is over 100 µM; with SNB-19, > 100 µM (inactive); in the experiment on RPMI-8226, > 100 µM (inactive); with NCI-H23 it was > 100 µM (inactive); in the experiment on T47D, > 100 µM (inactive).

For the compound `O=C1NC(Nc2ccccc2)=N/C1=C\c1c(Cl)cccc1Cl`, the GI50 was 21.4 µM (inactive) with HCC 2998; 20.6 µM (inactive) in the experiment with EKVX; 17.9 µM (inactive) in the experiment on U-251; 7.18 µM (inactive) with OVCAR-4; 31.3 µM (inactive) in the experiment on SF-295; 5.09 µM (inactive) in the experiment with SR. Further, the GI50 was 22.8 µM (inactive) in the experiment on M14; 24.9 µM (inactive) with NCI-H460; 37.5 µM (inactive) in the experiment with ACHN; 29.5 µM (inactive) in the experiment with KM12; 23.8 µM (inactive) with UACC-257; 29 µM (inactive) in the experiment on OVCAR-5. The GI50 was 49.8 µM in the experiment on HCT-15; 25 µM (inactive) in the experiment with SNB-19; 3.32 µM (inactive) in the experiment on HL-60; 33.5 µM (inactive) in the experiment on RPMI-8226; 29.6 µM (inactive) in the experiment on NCI-H23; 30.8 µM (inactive) in the experiment on T47D.

Regarding `C=CCCCN(C(=O)c1ccccc1)c1ccc(C(=O)OC)o1`, the GI50 in the experiment on EKVX, in the experiment with OVCAR-4, in the experiment on SF-295, in the experiment with M14, in the experiment with MDA-MB-231 and with NCI-H460 was > 100 µM (inactive) each time. Moreover, the GI50 was > 100 µM (inactive) with ACHN; 95.1 µM (inactive) in the experiment with KM12; > 100 µM (inactive) with UACC-257; > 100 µM (inactive) with OVCAR-5; over 100 µM in the experiment with HCT-15; > 100 µM (inactive) with SNB-19. Besides, the GI50 in the experiment on HL-60 was 19.3 µM (inactive); in the experiment on NCI-H23, > 100 µM (inactive); with T47D, 34 µM (inactive).

Regarding `Cc1csc(-n2nc(C)cc2C)n1`, the GI50 in the experiment on HCC 2998, in the experiment with EKVX, with U-251, in the experiment on OVCAR-4, with SF-295 and in the experiment with M14 was > 100 µM (inactive) in each case. Further, the GI50 in the experiment with MDA-MB-231, in the experiment on NCI-H460, in the experiment with ACHN, in the experiment on KM12, with UACC-257 and in the experiment with OVCAR-5 was > 100 µM (inactive) throughout. Besides, the GI50 in the experiment on HCT-15 is over 100 µM; with SNB-19, > 100 µM (inactive); in the experiment on HL-60 it was > 100 µM (inactive); with RPMI-8226, > 100 µM (inactive); in the experiment on NCI-H23, > 100 µM (inactive); in the experiment on T47D, > 100 µM (inactive).

`N#CC1=CNc2sccc2S1(=O)=O`: the GI50 in the experiment on HCC 2998 is 39.8 µM (inactive); with EKVX, > 100 µM (inactive); in the experiment with U-251, > 100 µM (inactive); in the experiment with OVCAR-4, > 100 µM (inactive); in the experiment with SF-295, > 100 µM (inactive); in the experiment with M14, > 100 µM (inactive). For the same compound, the GI50 is > 100 µM (inactive) in the experiment on MDA-MB-231; 40.7 µM (inactive) with NCI-H460; > 100 µM (inactive) with ACHN; 1.68 µM (inactive) with KM12; > 100 µM (inactive) in the experiment with UACC-257; > 100 µM (inactive) with OVCAR-5. Further, the GI50 with HCT-15 was 61.9 µM; in the experiment with SNB-19, > 100 µM (inactive); in the experiment on RPMI-8226 it was > 100 µM (inactive); in the experiment with NCI-H23, > 100 µM (inactive); in the experiment on T47D, 72.9 µM (inactive).

With `CCOC(=O)NCC(=O)NCC(=O)NCC(N)=O`, the GI50 with HCC 2998, in the experiment on EKVX, in the experiment on U-251, in the experiment on OVCAR-4, in the experiment on SF-295 and in the experiment on SR was > 100 µM (inactive) throughout. Moreover, the GI50 in the experiment with M14, in the experiment with MDA-MB-231, with ACHN, with KM12, in the experiment on UACC-257 and in the experiment on OVCAR-5 was > 100 µM (inactive) each time. Moreover, the GI50 in the experiment with HCT-15 was over 100 µM; in the experiment on SNB-19, > 100 µM (inactive); with RPMI-8226, > 100 µM (inactive); in the experiment with NCI-H23, > 100 µM (inactive); in the experiment with T47D, > 100 µM (inactive).

As for `Cc1ccc(/C=C2\CCCC(CN(C)C)C2=O)cc1` (stereo not drawn), the GI50 is 14.2 µM (inactive) in the experiment with HCC 2998; 17.5 µM (inactive) in the experiment on EKVX; 13.5 µM (inactive) in the experiment on U-251; 2.02 µM (inactive) in the experiment with OVCAR-4; 17.4 µM (inactive) in the experiment with SF-295; 1.81 µM (inactive) with M14. Further, the GI50 with MDA-MB-231 was 1.66 µM (inactive); in the experiment on NCI-H460, 3.48 µM (inactive); in the experiment on ACHN, 2.24 µM (inactive); in the experiment on KM12 it was 1.55 µM (inactive); with UACC-257, 1.88 µM (inactive); in the experiment with OVCAR-5, 15.8 µM (inactive). Further, the GI50 in the experiment on HCT-15 was 1.97 µM; in the experiment with SNB-19, 16.4 µM (inactive); in the experiment with HL-60, 0.841 µM (active); in the experiment on NCI-H23, 2.24 µM (inactive); with T47D, 1.75 µM (inactive).

On to `O=C(CC1(O)CCCCC1)OC1CCCC1`, for which the GI50 in the experiment on EKVX, with U-251, in the experiment on OVCAR-4, in the experiment on SF-295, in the experiment on M14 and in the experiment on MDA-MB-231 was > 100 µM (inactive) throughout. Moreover, the GI50 was > 100 µM (inactive) in the experiment on NCI-H460; > 100 µM (inactive) in the experiment with ACHN; > 100 µM (inactive) with KM12; > 100 µM (inactive) with UACC-257; > 100 µM (inactive) in the experiment on OVCAR-5; over 100 µM with HCT-15. Further, the GI50 in the experiment with SNB-19, in the experiment on NCI-H23 and with T47D was > 100 µM (inactive) each time.

(Values after ChEMBL document CHEMBL1201862, “PubChem BioAssay data set” (2004).)
